Drawing on patent US8399459B2, “1,4 oxazines as BACE1 and/or BACE2 inhibitors” (Hoffmann-La Roche Inc., priority 2011, dated 2013), this text covers IC50 for one compound.

For the assay, the target named is T1, BACE2 (Rattus norvegicus, UniProt Q6IE75).
T1 construct: endogenous cellular BACE2 in the Ins1e rat cell line; endogenous in cells; host or cells: INS-TMEM27 (INS1e-derived rat cell line with doxycycline-inducible full-length human TMEM27)
T1 sequence (Q6IE75 63-514): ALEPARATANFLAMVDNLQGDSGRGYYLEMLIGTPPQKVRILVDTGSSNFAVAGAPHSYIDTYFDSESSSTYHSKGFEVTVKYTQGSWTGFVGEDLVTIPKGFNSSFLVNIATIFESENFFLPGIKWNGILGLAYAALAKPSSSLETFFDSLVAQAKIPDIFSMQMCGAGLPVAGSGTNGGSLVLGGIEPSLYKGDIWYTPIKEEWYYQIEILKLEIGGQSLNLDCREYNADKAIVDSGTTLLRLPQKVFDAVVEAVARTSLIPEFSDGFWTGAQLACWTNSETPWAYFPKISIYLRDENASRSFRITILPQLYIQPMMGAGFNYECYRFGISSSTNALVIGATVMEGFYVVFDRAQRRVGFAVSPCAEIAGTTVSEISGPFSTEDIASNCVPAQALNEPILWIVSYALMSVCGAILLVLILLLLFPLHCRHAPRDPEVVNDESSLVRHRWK
Kind of assay: Assay for BACE inhibition by measuring cellular TMEM27 cleavage (INS-TMEM27 cells, ELISA). As to conditions: INS-TMEM27 (INS1e-derived) cells; shed TMEM27 by ELISA. It counts as cell-based. The text has this:
Assay for BACE Inhibition by Measuring Cellular TMEM27 Cleavage:
The assay uses the principle of inhibition of human TMEM27 cleavage by endogenous cellular BACE2 in the Ins1e rat cell line and shedding from the cell surface into the culture medium, followed by detection in an ELISA assay. Inhibition of BACE2 prevents the cleavage and shedding in a dose-dependent manner.
The stable cell line “INS-TMEM27” represents an INS1e-derived cell line with inducible expression (using the TetOn system) of full-length hTMEM27 in a doxycycline-dependent manner. The cells are cultured throughout the experiment in RPMI1640+Glutamax (Invitrogen) Penicillin/Streptomycin, 10% Fetal bovine serum, […], […], 100 micrograms/ml G418 and 100 microgram/ml hygromycin and are grown inadherent culture at 37° C. in a standard CO2 cell culture incubator.
INS-TMEM27 cells are seeded in 96-well plates. After 2 days in culture, BACE2 inhibitor is added in a range of concentrations as required by the assay and after a further two hours, doxycycline is added to a final concentration of 500 ng/ml. The cells are incubated for a further 46 hours and the supernatant harvested for detection of shed TMEM27.
An ELISA assay (using a pair of mouse anti-human-TMEM27 antibodies, raised against the extracellular domain of TMEM27) is used for detection of TMEM27 in the culture medium. An EC50 for BACE2 inhibition is calculated using the ELISA readout for each inhibitor concentration with standard curve-fitting software such as XLFit for the Excel spreadsheet program.
A general note: In an ELISA, binding on a coated surface is turned into a signal by an enzyme label.

For the compound `CC1(c2cccc(-c3cc(Cl)cc(Cl)c3)c2)COCC(N)=N1` (stereo not shown) [Example 32, 5-(3′,5′-Dichloro-biphenyl-3-yl)-5-methyl-5,6-dihydro-2H-[1,4]oxazin-3-ylamine], the IC50 (usually the concentration needed to halve the response being measured) is 470 nM.
